Experimental data: patent US7449495B2, “Retinoid derivatives with antiangiogenic, antitumoral and proapoptotic activities” (Sigma-Tau Industrie Farmaceutiche Riunite S.p.A., priority 2001, dated 2008)
pIC50: −log10 of the molar value.

Experiments:
[1] = tested on: F9 embryonic teratocarcinoma cells; settings: cited from earlier work
[2] = tested on: multidrug-resistant human ovarian carcinoma A2780/Dx; experiment: Antitumoral activity in human ovarian carcinoma model A2780/Dx; type: in vivo, CD1 nu/nu mice; settings: qdx5x3w
Experimental: The human ovarian carcinoma cells A2780, A2780/Dx and NCIH460 were maintained in RPMI-1640 containing 10% FCS, 2 mM glutamine, 50 μg/ml gentamicin, at 37° C. in a humidified atmosphere containing 5% CO2. The cells were trypsinised, collected in complete medium, centrifuged at approx. 1100 rpm for 10 minutes and the precipitate resuspended in Hank's 199 Medium; this operation was carried out twice. The cells were resuspended in Hank's 199 Medium at a density of 20×10^6/ml and 0.1 ml (equal to 2×10^6 cells/mouse) were injected s.c. into the right flank of CD1 nu/nu 6 week-old, female mice.
The ST1926 solution was prepared immediately before use and solubilised in cremophor:ethanol 1:1 and subsequently diluted 1:4 in buffered saline solution. The animal treatments were administered in a volume of 10 ml/kg. The treatment protocol for ST1926 at different doses was for 5 consecutive days (qd×5), beginning one day following tumor cell inoculation and repeated for 3 cycles. Measurements of tumor dimensions were performed using a digital calliper (Vernier Caliper) twice weekly, from the time in which the mass was measurable. The tumor mass was evaluated from the size of the two principal dimensions (length and breadth), expressed in mm, applying the formula (length×breadth^2)/2, that is, the tumor volume in mm3. For each experimental group, the percentage of tumor volume inhibition was calculated (TVI %), with respect to the control, namely (100−(T/C %). TVI was evaluated 2 days after the final administration of ST1926.
The mice were measured until the control group tumors had reached a weight of 2 g, then the mice were sacrificed by cervical dislocation.
A comparison between the TVI values obtained for each group was performed using the non parametric Mann Whitney test for non-paired data, using the Instat software from GraphPad inc.
The mice were weighed prior to each treatment, firstly, so as to be able to administer the correct quantity of substance based on the possible changes in weight observed throughout the course of administration of the drug, and also to record the maximum weight loss throughout the treatment (BWL % max).

[3] = tested on: vitamin-A deficient hamster trachea in organ culture; settings: cited from earlier work
BMEC cells = experiment: Endothelial BMEC cells chemotaxis (Boyden chamber); type: cell-based, bovine; settings: 50 and 25 μM
Experimental: The capacity of ST1879 to inhibit cellular migration through the polycarbonate filter in the direction of the chemoattractant factor, was quantitatively evaluated by counting the number of cells present on the lower side of the filter. The percentages of migration reported in table 8 were calculated according to the formula: (treated−control/control)×100.

[4] = tested on: KG-1 and HL-60R leukemia and MDA-MB-231 breast cancer cells; settings: cited from earlier work
[5] = tested on: human microvascular endothelial (HMVE) cells; settings: after 96 h of treatment, cited from earlier work
[6] = tested on: Human Promyelocytic Leukaemia NB4 Cells; experiment: Cyto-fluorometric cell cycle analysis, NB4; type: cell-based; settings: 3 days; for G0/G1 / G2 + M / S: percentage of cell cycle phase
Experimental: To evaluate the effect of the compound according to the invention, on various phases of the cell cycle, cyto-fluorometric cell cycle analyses were performed.
HL60 or NB4 cells were seeded onto plates at a density of 150.000 cells/ml in RPMI 1640 medium containing 10% FCS, the test compound (ST 1926) was added, solubilised in 0.1% DMSO at concentrations of between 0.01 and 0.1 μM, in the presence or absence of sub-optimal doses of ATRA (5-10 nM for NB4 and 0.5 μM for HL60) in the dark and placed in an incubator for 3 days without changing the culture medium.
On the third day of treatment 500.000 cells were sampled, centrifuged at 180×g for 5 minutes, washed twice in calcium and magnesium free PBS. The cells (1×10^6/ml of fixative) were fixed for at least 1 hour in a fixation mixture comprised of acetone/methanol 1:4 v/v maintained at −20° C. and 50% of calcium and magnesium free PBS; then the cells were centrifuged, washed in calcium and magnesium free PBS, and again centrifuged and washed. The cellular precipitate was incubated for 30 minutes in the dark at room temperature with 200 μl of […] (100 μg/ml) and 200 μl of RNAse (150 KU/mg).
The samples with filtered through nylon filters (60-80 μm diameter) and analysed by cyto-fluorimeter FACScan (Becton Dickinson), acquiring 20000 events/sample, at an excitation wavelength of 488 nm and emission wavelength of 620 nm. The analysis of the percentages of the cell cycle phases was performed using a dedicated software package, Modfit v. 2.0 (Becton Dickinson).

SMILES: O=C(O)/C=C/c1ccc(-c2ccc(O)c(C34CC5CC(CC(C5)C3)C4)c2)cc1 [ST1926, E-4-(3-(1-adamantyl)-4-hydroxyphenyl)cinnamic acid]
- activity in the F9 assay compared with compound 1 (in words) [1]: lower activities
- BWL % Max ([2]; 10 mg/kg po): 0%
- Lethality ([2]; 10 mg/kg po): 0/8
- TVI % ± SE ([2]; 10 mg/kg po): *34 ± 3%
- BWL % Max ([2]; 15 mg/kg po): 6%
- Lethality ([2]; 15 mg/kg po): 0/8
- TVI % ± SE ([2]; 15 mg/kg po): *54 ± 9%
- activity in the TOC assay compared with compound 1 (in words) [3]: lower activities
- chemotaxis of the BMEC cells towards FCS (in words) (BMEC cells): inhibition of chemotaxis
- induction of cancer cell apoptosis (in words) [4]: effectively induced cancer cell apoptosis
- inhibition (%) at 0.5 μM ([5]; 0.5 μM, relative to vehicle alone control): 90%
- pIC50 ([5]; highest concentration evaluated 0.5 μM, read-out: IC50 (concentration inhibiting proliferation by 50%)): 7.00
- APOPTOSIS ([6]; NB4, 0.01 μM): 19.9
- G0/G1 ([6]; NB4, 0.01 μM): 48.4
- G2 + M ([6]; NB4, 0.01 μM): 12.8
- S ([6]; NB4, 0.01 μM): 38.8
- APOPTOSIS ([6]; NB4, 0.02 μM): 28.4
- G0/G1 ([6]; NB4, 0.02 μM): 48.2
- G2 + M ([6]; NB4, 0.02 μM): 12.4
- S ([6]; NB4, 0.02 μM): 39.4
- APOPTOSIS ([6]; NB4, 0.04 μM): 33.9
- G0/G1 ([6]; NB4, 0.04 μM): 51.3
- G2 + M ([6]; NB4, 0.04 μM): 13.0
- S ([6]; NB4, 0.04 μM): 35.7
- APOPTOSIS ([6]; NB4, 0.08 μM): 45.0
- G0/G1 ([6]; NB4, 0.08 μM): 41.4
- G2 + M ([6]; NB4, 0.08 μM): 5.0
- S ([6]; NB4, 0.08 μM): 53.6
- APOPTOSIS ([6]; NB4, 0.1 μM): 53.6
- G0/G1 ([6]; NB4, 0.1 μM): 50.6
- G2 + M ([6]; NB4, 0.1 μM): 3.3
- S ([6]; NB4, 0.1 μM): 46.1
- effect on the cell cycle of NB4 (in words) ([6]; NB4, 0.08 and 0.1 μM): induces growth arrest in the duplication S phase of the cycle and apoptosis
